What is called IC50 is the point on the concentration scale where inhibition reaches its midpoint. As a reminder, the half-life is how long it takes for the measured level to halve. One may read the Ki as a measure of affinity in units of concentration, obtained from inhibition or displacement.

The text below walks through data of ChEMBL document CHEMBL4184111, “Small molecule immuno-oncology therapeutic agents” (Bioorg Med Chem Lett, 2018).

Structures are written as SMILES.

Data set [1] concerns the target Programmed cell death protein 1 (Homo sapiens, UniProt Q15116). The experiment in a line: Inhibition of His-tagged PD-L1 binding to PD-1-Ig (unknown origin) preincubated with PD-L1 for 15 mins followed by PD-1-Ig addition measured after 15 mins by HTRF binding assay. On the technique in general: In TR-FRET formats the signal depends on donor and acceptor labels being close together.

Data set [2] deals with Tyrosine-protein kinase SYK (Homo sapiens, UniProt P43405). Description: Inhibition of N-terminal GST-tagged human SYK expressed in baculovirus infected Sf9 insect cells using Biotin-Aha-Aha-KEDPDYEWPSAKK as substrate after 90 mins by flash plate assay.
The target in the next data set is eIF-2-alpha kinase GCN2 (Homo sapiens, UniProt Q9P2K8). Description: Inhibition of GCN2 (unknown origin) using GFP--fused eIF2alpha as substrate preincubated for 20 mins followed by substrate and ATP addition measured after 90 mins by TR-FRET assay.
Data set [3] has as its target Mitogen-activated protein kinase kinase kinase kinase 1 (Homo sapiens, UniProt Q92918). The experiment in a line: Inhibition of N-terminal GST-tagged human HPK1 (1 to 346 residues) after 30 mins in presence of ATP by indirect ELISA.
A short description of data set [4]: Inhibition of arginase (unknown origin). The arrangement: species or system Homo sapiens.
Data set [5] in a line: Half life in rat. Format: ADME, organism-based. The settings on record: in vivo.
In data set [6] the target is T1, Arginase-2, mitochondrial (Homo sapiens, UniProt P78540).
T1 sequence (P78540 whole entry): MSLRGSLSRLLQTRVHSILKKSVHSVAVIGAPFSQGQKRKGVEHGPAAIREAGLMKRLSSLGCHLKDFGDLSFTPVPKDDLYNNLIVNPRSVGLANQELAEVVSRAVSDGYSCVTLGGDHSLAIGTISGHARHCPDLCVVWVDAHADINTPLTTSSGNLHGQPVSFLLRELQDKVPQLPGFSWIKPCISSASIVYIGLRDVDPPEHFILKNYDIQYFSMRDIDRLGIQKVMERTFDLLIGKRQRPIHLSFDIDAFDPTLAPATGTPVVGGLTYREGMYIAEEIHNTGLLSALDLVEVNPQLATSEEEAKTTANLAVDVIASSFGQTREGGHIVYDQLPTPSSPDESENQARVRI
Description: Inhibition of arginase 2 (unknown origin).

Mitogen-activated protein kinase kinase kinase kinase 1, sequence (Q92918 whole entry, the tested form may be a part): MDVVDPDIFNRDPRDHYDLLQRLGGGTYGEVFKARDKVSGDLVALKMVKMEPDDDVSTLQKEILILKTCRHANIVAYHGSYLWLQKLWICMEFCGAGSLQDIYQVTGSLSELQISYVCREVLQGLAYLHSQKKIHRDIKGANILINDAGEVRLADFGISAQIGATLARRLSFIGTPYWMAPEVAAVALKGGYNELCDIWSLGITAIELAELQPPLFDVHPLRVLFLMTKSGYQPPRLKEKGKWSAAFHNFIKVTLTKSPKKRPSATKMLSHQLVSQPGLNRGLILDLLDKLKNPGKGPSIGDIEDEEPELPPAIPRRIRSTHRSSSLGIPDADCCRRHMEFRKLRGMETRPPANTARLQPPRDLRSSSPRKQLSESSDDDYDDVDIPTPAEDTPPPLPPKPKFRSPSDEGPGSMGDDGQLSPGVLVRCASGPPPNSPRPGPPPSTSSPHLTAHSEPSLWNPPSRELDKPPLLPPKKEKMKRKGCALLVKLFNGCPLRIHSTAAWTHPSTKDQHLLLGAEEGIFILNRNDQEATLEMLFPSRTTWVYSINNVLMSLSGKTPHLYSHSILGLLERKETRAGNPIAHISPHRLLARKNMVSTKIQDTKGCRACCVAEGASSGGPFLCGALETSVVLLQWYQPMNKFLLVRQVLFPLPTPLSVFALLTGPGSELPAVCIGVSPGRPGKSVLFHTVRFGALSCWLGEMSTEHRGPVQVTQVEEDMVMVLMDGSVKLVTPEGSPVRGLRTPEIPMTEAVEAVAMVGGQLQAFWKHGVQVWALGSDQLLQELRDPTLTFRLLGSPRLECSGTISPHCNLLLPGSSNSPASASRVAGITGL
Programmed cell death protein 1, sequence (Q15116 whole entry): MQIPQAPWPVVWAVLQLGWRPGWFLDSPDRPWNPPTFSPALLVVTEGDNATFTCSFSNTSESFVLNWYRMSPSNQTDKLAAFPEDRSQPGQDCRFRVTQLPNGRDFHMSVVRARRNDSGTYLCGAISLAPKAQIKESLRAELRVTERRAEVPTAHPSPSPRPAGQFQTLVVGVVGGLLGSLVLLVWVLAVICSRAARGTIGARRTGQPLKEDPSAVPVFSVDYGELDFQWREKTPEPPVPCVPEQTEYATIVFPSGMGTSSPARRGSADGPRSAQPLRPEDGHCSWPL
eIF-2-alpha kinase GCN2, sequence (Q9P2K8 whole entry, the tested form may be a part): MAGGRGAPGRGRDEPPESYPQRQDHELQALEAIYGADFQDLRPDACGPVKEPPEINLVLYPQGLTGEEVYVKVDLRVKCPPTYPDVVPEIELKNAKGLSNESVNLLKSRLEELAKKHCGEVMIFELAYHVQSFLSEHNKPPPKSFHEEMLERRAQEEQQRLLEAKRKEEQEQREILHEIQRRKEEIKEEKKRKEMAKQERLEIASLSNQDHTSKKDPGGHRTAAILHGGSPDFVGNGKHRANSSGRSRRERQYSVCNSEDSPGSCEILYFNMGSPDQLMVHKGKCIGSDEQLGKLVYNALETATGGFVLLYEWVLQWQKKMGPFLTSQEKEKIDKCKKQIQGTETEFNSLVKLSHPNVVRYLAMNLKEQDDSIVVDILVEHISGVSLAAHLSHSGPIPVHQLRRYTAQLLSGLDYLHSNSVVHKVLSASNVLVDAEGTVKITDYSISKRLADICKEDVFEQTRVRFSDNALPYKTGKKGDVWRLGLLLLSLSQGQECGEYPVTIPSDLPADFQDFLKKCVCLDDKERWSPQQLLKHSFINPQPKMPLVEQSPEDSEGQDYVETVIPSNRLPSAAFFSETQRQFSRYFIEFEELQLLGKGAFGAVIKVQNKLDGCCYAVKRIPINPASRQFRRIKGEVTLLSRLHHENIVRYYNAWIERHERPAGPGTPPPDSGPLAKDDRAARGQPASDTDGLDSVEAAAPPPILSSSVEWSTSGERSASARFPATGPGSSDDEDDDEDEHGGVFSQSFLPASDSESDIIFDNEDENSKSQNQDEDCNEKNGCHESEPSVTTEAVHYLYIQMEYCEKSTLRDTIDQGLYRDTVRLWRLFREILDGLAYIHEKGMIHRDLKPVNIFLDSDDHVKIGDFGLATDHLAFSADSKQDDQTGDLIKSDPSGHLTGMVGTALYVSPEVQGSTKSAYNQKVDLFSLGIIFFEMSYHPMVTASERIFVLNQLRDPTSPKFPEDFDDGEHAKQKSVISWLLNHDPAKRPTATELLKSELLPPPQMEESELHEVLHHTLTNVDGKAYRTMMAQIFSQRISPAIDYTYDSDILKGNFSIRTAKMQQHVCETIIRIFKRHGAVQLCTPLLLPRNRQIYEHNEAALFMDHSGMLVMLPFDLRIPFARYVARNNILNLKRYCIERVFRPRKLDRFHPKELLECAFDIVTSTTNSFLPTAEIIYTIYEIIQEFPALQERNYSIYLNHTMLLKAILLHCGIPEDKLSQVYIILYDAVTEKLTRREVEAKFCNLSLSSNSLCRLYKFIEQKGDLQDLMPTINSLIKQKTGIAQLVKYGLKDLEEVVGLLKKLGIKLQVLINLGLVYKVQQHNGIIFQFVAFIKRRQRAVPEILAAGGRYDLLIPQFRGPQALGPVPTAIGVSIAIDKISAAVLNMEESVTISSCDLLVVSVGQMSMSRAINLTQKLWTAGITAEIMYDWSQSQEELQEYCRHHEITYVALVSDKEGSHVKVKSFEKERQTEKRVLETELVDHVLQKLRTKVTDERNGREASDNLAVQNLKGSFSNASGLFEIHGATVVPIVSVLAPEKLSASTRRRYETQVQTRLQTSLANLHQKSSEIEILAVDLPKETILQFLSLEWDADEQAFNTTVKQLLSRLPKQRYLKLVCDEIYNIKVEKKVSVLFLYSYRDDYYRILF

In data set [1], `C[C@H](O)[C@H](NC(=O)N[C@@H](CC(N)=O)c1nnc([C@@H](N)CO)s1)C(=O)O` returned an IC50 of less than 50 nM.

`CC(C)C1(O)C(=O)Nc2cc(Nc3nc4c(-c5cnn(C)c5)nccn4n3)ccc21` (stereo not given): the IC50 in data set [2] fell in the range of 100 to 300 nM; against eIF-2-alpha kinase GCN2, 300 to 3000 nM.

`O[C@H]1CC[C@H](n2cc(Nc3ncc4nnn(-c5ccc(Cl)c(F)c5)c4n3)cn2)CC1`: the IC50 against eIF-2-alpha kinase GCN2 is less than 300 nM.

`CN1CCN(c2ccc3nc(-c4c(N)c5sccc5[nH]c4=O)[nH]c3c2)CC1`: the IC50 in data set [3] is less than 50 nM.

As to `CN1CCN(c2ccc3[nH]c(-c4c(N)c5ccsc5[nH]c4=O)nc3c2)CC1`, in data set [3], the concentration for half-maximal inhibition (IC50) was less than 50 nM.

The molecule `COc1cc(OCc2cccc(-c3ccccc3)c2C)cc(OC)c1CNCC1CC(=O)N1` (stereo not given) showed an IC50 in data set [1] of less than 50 nM.

As for `C[C@H](N)C(=O)N1C[C@H](CCCB(O)O)[C@](N)(C(=O)O)C1`, in data set [4], half-maximal inhibition (IC50) required 98 nM.

The molecule `N=C(NO)NCC[C@H](N)C(=O)O` [NOR-NOHA] yielded a half-life in data set [5] of 15 to 30 min. In data set [6], this molecule yielded an inhibition constant (Ki) of 51 nM.
